# Laboratory results as given in patent publication US10392397B2, “Heterocyclic thiosemicarbazone derivatives and their therapeutical applications” (NANTBIO, INC., priority 2015, dated 2019).
# Legend:
# Format in all cases: cell-based
# SNB-19 = assay: SRB growth inhibition, SNB-19; details: Homo sapiens, SNB-19, CNS Cancer, 48 h
# Method: (§1) Human tumor cell lines were grown in RPM(1640 medium containing 5% fetal bovine serum and 2 mM L-glutamine. For a typical screening experiment, cells were inoculated into 96 well microtiter plates in 100 μL at plating densities ranging from 5,000 to 40,000 cells/well depending on the doubling time of individual cell lines. After cell inoculation, the microtiter plates were incubated at 37° C., 5% CO2, 95% air and 100% relative humidity for 24 h prior to addition of Compound 3 above.
# (§2) After 24 h, two plates of each cell line were fixed in situ with TCA, to represent a measurement of the cell population for each cell line at the time of drug addition (Tz). […]
# (§3) Following drug addition, the plates were incubated for an additional 48 h at 37° C., 5% CO2, 95% air, and 100% relative humidity. […] Bound stain was subsequently solubilized with 10 mM trizma base, and the absorbance was read on an automated plate reader at a wavelength of 515 nm. […] Using the seven absorbance measurements [time zero, (Tz), control growth, (C), and test growth in the presence of drug at the five concentration levels (Ti)], the percentage growth was calculated at each of the drug concentrations levels. Percentage growth inhibition was calculated as: [(Ti-Tz)/(C-Tz)]×100 for concentrations for which Ti>/=Tz [(Ti-Tz)/Tz]×100 for concentrations for which Ti<Tz. […]
# NCI-H460 = assay: SRB growth inhibition, NCI-H460; details: Homo sapiens, NCI-H460, Non-Small Cell Lung Cancer, 48 h
# Method: as §1, §2, §3
# DU-145 = assay: SRB growth inhibition, DU-145; details: Homo sapiens, DU-145, Prostate Cancer, 48 h
# Method: as §1, §2, §3
# IGROV1 = assay: SRB growth inhibition, IGROV1; details: Homo sapiens, IGROV-1, IGROV1, Ovarian Cancer, 48 h
# Method: as §1, §2, §3
# EKVX = assay: SRB growth inhibition, EKVX; details: Homo sapiens, Non-Small Cell Lung Cancer, 48 h
# Method: as §1, §2, §3
# SK-OV-3 = assay: SRB growth inhibition, SK-OV-3; details: Homo sapiens, SK-OV-3, Ovarian Cancer, 48 h
# Method: as §1, §2, §3
# ACHN = assay: SRB growth inhibition, ACHN; details: Homo sapiens, Renal Cancer, 48 h
# Method: as §1, §2, §3
# HOP-92 = assay: SRB growth inhibition, HOP-92; details: Homo sapiens, HOP-92, Non-Small Cell Lung Cancer, 48 h
# Method: as §1, §2, §3
# NCI-H23 = assay: SRB growth inhibition, NCI-H23; details: Homo sapiens, NCI-H23, Non-Small Cell Lung Cancer, 48 h
# Method: as §1, §2, §3
# SN12C = assay: SRB growth inhibition, SN12C; details: Homo sapiens, Renal Cancer, 48 h
# Method: as §1, §2, §3
# BT-549 = assay: SRB growth inhibition, BT-549; details: Homo sapiens, BT-549, Breast Cancer, 48 h
# Method: as §1, §2, §3
# HS 578T = assay: SRB growth inhibition, HS 578T; details: Homo sapiens, Breast Cancer, 48 h
# Method: as §1, §2, §3
# OVCAR-5 = assay: SRB growth inhibition, OVCAR-5; details: Homo sapiens, OVCAR-5, Ovarian Cancer, 48 h
# Method: as §1, §2, §3
# A498 = assay: SRB growth inhibition, A498; details: Homo sapiens, A498, Renal Cancer, 48 h
# Method: as §1, §2, §3
# MDA-MB-435 = assay: SRB growth inhibition, MDA-MB-435; details: Homo sapiens, MDA-MB-435, Melanoma, 48 h
# Method: as §1, §2, §3
# MDA-MB-231/ATCC = assay: SRB growth inhibition, MDA-MB-231/ATCC; details: Homo sapiens, Breast Cancer, 48 h
# Method: as §1, §2, §3
# OVCAR-3 = assay: SRB growth inhibition, OVCAR-3; details: Homo sapiens, OVCAR-3, Ovarian Cancer, 48 h
# Method: as §1, §2, §3
# RXF 393 = assay: SRB growth inhibition, RXF 393; details: Homo sapiens, RXF 393, Renal Cancer, 48 h
# Method: as §1, §2, §3
# MALME-3M = assay: SRB growth inhibition, MALME-3M; details: Homo sapiens, Melanoma, 48 h
# Method: as §1, §2, §3
# SW-620 = assay: SRB growth inhibition, SW-620; details: Homo sapiens, SW-620, Colon Cancer, 48 h
# Method: as §1, §2, §3
# HCT-116 = assay: SRB growth inhibition, HCT-116; details: Homo sapiens, HCT-116, Colon Cancer, 48 h
# Method: as §1, §2, §3
# HOP-62 = assay: SRB growth inhibition, HOP-62; details: Homo sapiens, HOP-62, Non-Small Cell Lung Cancer, 48 h
# Method: as §1, §2, §3
# M14 = assay: SRB growth inhibition, M14; details: Homo sapiens, M14, Melanoma, 48 h
# Method: as §1, §2, §3
# SNB-75 = assay: SRB growth inhibition, SNB-75; details: Homo sapiens, SNB-75, CNS Cancer, 48 h
# Method: as §1, §2, §3
# A549/ATCC = assay: SRB growth inhibition, A549/ATCC; details: Homo sapiens, Non-Small Cell Lung Cancer, 48 h
# Method: as §1, §2, §3
# NCI-H226 = assay: SRB growth inhibition, NCI-H226; details: Homo sapiens, NCI-H226, Non-Small Cell Lung Cancer, 48 h
# Method: as §1, §2, §3
# COLO 205 = assay: SRB growth inhibition, COLO 205; details: Homo sapiens, COLO 205, Colon Cancer, 48 h
# Method: as §1, §2, §3
# SR = assay: SRB growth inhibition, SR; details: Homo sapiens, Leukemia, 48 h
# Method: as §1, §2, §3
# K-562 = assay: SRB growth inhibition, K-562; details: Homo sapiens, K562, K-562, Leukemia, 48 h
# Method: as §1, §2, §3
# 786-0 = assay: SRB growth inhibition, 786-0; details: Homo sapiens, 786-0, Renal Cancer, 48 h
# Method: as §1, §2, §3
# CAKI-1 = assay: SRB growth inhibition, CAKI-1; details: Homo sapiens, CAKI-1, Renal Cancer, 48 h
# Method: as §1, §2, §3
# CCRF-CEM = assay: SRB growth inhibition, CCRF-CEM; details: Homo sapiens, Leukemia, 48 h
# Method: as §1, §2, §3
# SK-MEL-2 = assay: SRB growth inhibition, SK-MEL-2; details: Homo sapiens, SK-MEL-2, Melanoma, 48 h
# Method: as §1, §2, §3
# SF-295 = assay: SRB growth inhibition, SF-295; details: Homo sapiens, SF-295, CNS Cancer, 48 h
# Method: as §1, §2, §3
# NCI/ADR-RES = assay: SRB growth inhibition, NCI/ADR-RES; details: Homo sapiens, Ovarian Cancer, 48 h
# Method: as §1, §2, §3
# OVCAR-4 = assay: SRB growth inhibition, OVCAR-4; details: Homo sapiens, OVCAR-4, Ovarian Cancer, 48 h
# Method: as §1, §2, §3
# OVCAR-8 = assay: SRB growth inhibition, OVCAR-8; details: Homo sapiens, OVCAR-8, Ovarian Cancer, 48 h
# Method: as §1, §2, §3
# MDA-MB-468 = assay: SRB growth inhibition, MDA-MB-468; details: Homo sapiens, MDA-MB-468, Breast Cancer, 48 h
# Method: as §1, §2, §3
# SF-539 = assay: SRB growth inhibition, SF-539; details: Homo sapiens, SF-539, CNS Cancer, 48 h
# Method: as §1, §2, §3
# T-47D = assay: SRB growth inhibition, T-47D; details: Homo sapiens, T47D, Breast Cancer, 48 h
# Method: as §1, §2, §3
# SK-MEL-28 = assay: SRB growth inhibition, SK-MEL-28; details: Homo sapiens, SK-MEL-28, Melanoma, 48 h
# Method: as §1, §2, §3
# PC-3 = assay: SRB growth inhibition, PC-3; details: Homo sapiens, PC-3, Prostate Cancer, 48 h
# Method: as §1, §2, §3
# SK-MEL-5 = assay: SRB growth inhibition, SK-MEL-5; details: Homo sapiens, SK-MEL-5, Melanoma, 48 h
# Method: as §1, §2, §3
# MOLT-4 = assay: SRB growth inhibition, MOLT-4; details: Homo sapiens, MOLT-4, Leukemia, 48 h
# Method: as §1, §2, §3
# LOX IMVI = assay: SRB growth inhibition, LOX IMVI; details: Homo sapiens, Melanoma, 48 h
# Method: as §1, §2, §3
# UACC-257 = assay: SRB growth inhibition, UACC-257; details: Homo sapiens, UACC-257, Melanoma, 48 h
# Method: as §1, §2, §3
# UACC-62 = assay: SRB growth inhibition, UACC-62; details: Homo sapiens, UACC-62, Melanoma, 48 h
# Method: as §1, §2, §3
# HT29 = assay: SRB growth inhibition, HT29; details: Homo sapiens, HT-29, HT29, Colon Cancer, 48 h
# Method: as §1, §2, §3
# UO-31 = assay: SRB growth inhibition, UO-31; details: Homo sapiens, UO-31, Renal Cancer, 48 h
# Method: as §1, §2, §3
# NCI-H522 = assay: SRB growth inhibition, NCI-H522; details: Homo sapiens, NCI-H522, Non-Small Cell Lung Cancer, 48 h
# Method: as §1, §2, §3
# U251 = assay: SRB growth inhibition, U251; details: Homo sapiens, U-251, U251, CNS Cancer, 48 h
# Method: as §1, §2, §3
# SF-268 = assay: SRB growth inhibition, SF-268; details: Homo sapiens, SF-268, CNS Cancer, 48 h
# Method: as §1, §2, §3
# HCT-15 = assay: SRB growth inhibition, HCT-15; details: Homo sapiens, HCT-15, Colon Cancer, 48 h
# Method: as §1, §2, §3
# NCI-H322M = assay: SRB growth inhibition, NCI-H322M; details: Homo sapiens, Non-Small Cell Lung Cancer, 48 h
# Method: as §1, §2, §3
# HL-60(TB) = assay: SRB growth inhibition, HL-60(TB); details: Homo sapiens, Leukemia, 48 h
# Method: as §1, §2, §3
# MCF7 = assay: SRB growth inhibition, MCF7; details: Homo sapiens, MCF7, Breast Cancer, 48 h
# Method: as §1, §2, §3
# HCC-2998 = assay: SRB growth inhibition, HCC-2998; details: Homo sapiens, HCC-2998, Colon Cancer, 48 h
# Method: as §1, §2, §3
# RPMI-8226 = assay: SRB growth inhibition, RPMI-8226; details: Homo sapiens, RPMI-8226, Leukemia, 48 h
# Method: as §1, §2, §3
# TK-10 = assay: SRB growth inhibition, TK-10; details: Homo sapiens, TK-10, Renal Cancer, 48 h
# Method: as §1, §2, §3
# KM12 = assay: SRB growth inhibition, KM12; details: Homo sapiens, KM12, Colon Cancer, 48 h
# Method: as §1, §2, §3
structure (smiles),measurement,setting,value
"S=C(N/N=C1/CCOc2cccnc21)N1CCN(c2ccccn2)CC1 [Example 3, (Z)—N′-(2H-pyrano[3,2-b]pyridin-4(3H)-ylidene)-4-(pyridin-2-yl)piperazine-1-carbothiohydrazide]",GI50,SNB-19,433 nM
same,GI50,NCI-H460,38.8 nM
same,GI50,DU-145,345 nM
same,GI50,IGROV1,< 10 nM
same,GI50,EKVX,140 nM
same,GI50,SK-OV-3,82 nM
same,GI50,ACHN,196 nM
same,GI50,HOP-92,16.7 nM
same,GI50,NCI-H23,32.1 nM
same,GI50,SN12C,1490 nM
same,GI50,BT-549,71.8 nM
same,GI50,HS 578T,754 nM
same,GI50,OVCAR-5,991 nM
same,GI50,A498,192 nM
same,GI50,MDA-MB-435,271 nM
same,GI50,MDA-MB-231/ATCC,74.8 nM
same,GI50,OVCAR-3,< 10 nM
same,GI50,RXF 393,1340 nM
same,GI50,MALME-3M,1290 nM
same,GI50,SW-620,< 10 nM
same,GI50,HCT-116,< 10 nM
same,GI50,HOP-62,37.2 nM
same,GI50,M14,37.5 nM
same,GI50,SNB-75,1080 nM
same,GI50,A549/ATCC,155 nM
same,GI50,NCI-H226,338 nM
same,GI50,COLO 205,< 10 nM
same,GI50,SR,65.5 nM
same,GI50,K-562,< 10 nM
same,GI50,786-0,77.1 nM
same,GI50,CAKI-1,151 nM
same,GI50,CCRF-CEM,< 10 nM
same,GI50,SK-MEL-2,799 nM
same,GI50,SF-295,232 nM
same,GI50,NCI/ADR-RES,37.4 nM
same,GI50,OVCAR-4,16.5 nM
same,GI50,OVCAR-8,37.4 nM
same,GI50,MDA-MB-468,< 10 nM
same,GI50,SF-539,1160 nM
same,GI50,T-47D,< 10 nM
same,GI50,SK-MEL-28,472 nM
same,GI50,PC-3,< 10 nM
same,GI50,SK-MEL-5,222 nM
same,GI50,MOLT-4,< 10 nM
same,GI50,LOX IMVI,25.1 nM
same,GI50,UACC-257,11.8 nM
same,GI50,UACC-62,170 nM
same,GI50,HT29,< 10 nM
same,GI50,UO-31,132 nM
same,GI50,NCI-H522,505 nM
same,GI50,U251,26.5 nM
same,GI50,SF-268,410 nM
same,GI50,HCT-15,< 10 nM
same,GI50,NCI-H322M,221 nM
same,GI50,HL-60(TB),14.9 nM
same,GI50,MCF7,< 10 nM
same,GI50,HCC-2998,701 nM
same,GI50,RPMI-8226,< 10 nM
same,GI50,TK-10,748 nM
same,GI50,KM12,225 nM
